Earlier results in paper PMC8374649, “IBI362 (LY3305677), a weekly-dose GLP-1 and glucagon receptor dual agonist, in Chinese adults with overweight or obesity: A randomised, placebo-controlled, multiple ascending dose phase 1b study” (EClinicalMedicine, 2021).

Legend:
[1] = system: patients with type 2 diabetes; settings: 12-week administration; cited from earlier work
From the text: A remarkable and unexpected finding of this study was the statistically significant reduction in serum uric acid levels in participants receiving IBI362. BMI is strongly positively correlated with serum uric acid levels, and weight loss is a commonly recommended treatment for gout, a disease resulting from chronic elevation of serum uric acid, [29], [30]. Although GLP-1 receptor agonists promote weight loss, direct evidence regarding the relationship between GLP-1 receptor agonists and blood uric acid level is limited.

[2] = system: Japanese adults with type 2 diabetes; settings: once-daily, 48-day phase 2a study; cited from earlier work
From the text: Despite the weight loss effect of glucagon, its inherited stimulation of gluconeogenesis and glycogenolysis requires optimal balancing of GLP-1 and glucagon receptor activities for dual agonists. […] IBI362 has b ...

| Substance | Plasma uric acid levels compared with placebo [1] | Weight loss and glycaemic control [2] |
| --- | --- | --- |
| liraglutide (HAEGTFTSDVSSYLEGQAAKEFIAWLVRGRG; chains of the INN, looked up) [GLP-1 receptor agonist] | did not reduce plasma uric acid levels | – |
| Cotadutide | – | optimal weight loss and glycaemic control |
